Laboratory results from PMC11576293, “New series of 4,6-diaryl pyrimidines: facile synthesis and antiproliferative activity as dual EGFR/VEGFR-2 inhibitors” (Frontiers in Chemistry, 2024).

What was measured:
Assay type in all cases: cell-based
IGROV1 = assay: NCI-60 single-dose screen; conditions: Homo sapiens, IGROV-1, single dose 10 µM, '-' = no inhibition, read-out: % Growth Inhibition
Method: (§1) The National Cancer Institute’s Developmental Therapeutic Program (www.dtp.nci.nih.gov) has tested compounds 9–29 (except compounds 21 and 22) against 60 cancer cell lines from nine types (leukemia, lung, colon, CNS, melanoma, ovarian, renal, prostate, and breast cancer) at a single dose (10 μM) ([El-Sherief et al., 2018]). […] The most sensitive cells included leukemia (SR, K-562, and MOLT-4), lung (NCI-H522, […], and EKVX), breast (MCF-7 and T-47D), colon (HCT-15 and HT-29), and ovarian (NCI/ADR-RES).
(§2) The National Cancer Institute’s Developmental Therapeutic Program (www.dtp.nci.nih.gov) evaluated compounds 9–29 (excluding 21 and 22) against 60 cancer cell lines from nine categories (leukemia, lung, colon, CNS, melanoma, ovarian, renal, prostate, and breast cancer) at a single dose (10 μM) ([El-Sherief et al., 2018]). See Supplementary Material A1 for more details.

COLO 205 = assay: NCI-60 single-dose screen; conditions: Homo sapiens, single dose 10 µM, '-' = no inhibition, read-out: % Growth Inhibition
Method: as §1, §2

HS 578T = assay: NCI-60 single-dose screen; conditions: Homo sapiens, single dose 10 µM, '-' = no inhibition, read-out: % Growth Inhibition
Method: as §1, §2

SF-539 = assay: NCI-60 single-dose screen; conditions: Homo sapiens, single dose 10 µM, '-' = no inhibition, read-out: % Growth Inhibition
Method: as §1, §2

OVCAR-3 = assay: NCI-60 single-dose screen; conditions: Homo sapiens, single dose 10 µM, '-' = no inhibition, read-out: % Growth Inhibition
Method: as §1, §2

HCT-116 = assay: NCI-60 single-dose screen; conditions: Homo sapiens, single dose 10 µM, '-' = no inhibition, read-out: % Growth Inhibition
Method: as §1, §2

MALME-3M = assay: NCI-60 single-dose screen; conditions: Homo sapiens, single dose 10 µM, '-' = no inhibition, read-out: % Growth Inhibition
Method: as §1, §2

MCF7 = assay: NCI-60 single-dose screen; conditions: Homo sapiens, single dose 10 µM, '-' = no inhibition, read-out: % Growth Inhibition
Method: as §1, §2

MDA-MB231/ATCC = assay: NCI-60 single-dose screen; conditions: Homo sapiens, MDA-MB-231, single dose 10 µM, '-' = no inhibition, read-out: % Growth Inhibition
Method: as §1, §2

A549/ATCC = assay: NCI-60 single-dose screen; conditions: Homo sapiens, single dose 10 µM, '-' = no inhibition, read-out: % Growth Inhibition
Method: as §1, §2

PC-3 = assay: NCI-60 single-dose screen; conditions: Homo sapiens, single dose 10 µM, '-' = no inhibition, read-out: % Growth Inhibition
Method: as §1, §2

SNB-75 = assay: NCI-60 single-dose screen; conditions: Homo sapiens, single dose 10 µM, '-' = no inhibition, read-out: % Growth Inhibition
Method: as §1, §2

RXF 393 = assay: NCI-60 single-dose screen; conditions: Homo sapiens, single dose 10 µM, '-' = no inhibition, read-out: % Growth Inhibition
Method: as §1, §2

NCI/ADR-RES = assay: NCI-60 single-dose screen; conditions: Homo sapiens, single dose 10 µM, '-' = no inhibition, read-out: % Growth Inhibition
Method: as §1, §2

OVCAR-8 = assay: NCI-60 single-dose screen; conditions: Homo sapiens, single dose 10 µM, '-' = no inhibition, read-out: % Growth Inhibition
Method: as §1, §2

SN12C = assay: NCI-60 single-dose screen; conditions: Homo sapiens, single dose 10 µM, '-' = no inhibition, read-out: % Growth Inhibition
Method: as §1, §2

SNB-19 = assay: NCI-60 single-dose screen; conditions: Homo sapiens, single dose 10 µM, '-' = no inhibition, read-out: % Growth Inhibition
Method: as §1, §2

SR = assay: NCI-60 single-dose screen; conditions: Homo sapiens, single dose 10 µM, '-' = no inhibition, read-out: % Growth Inhibition
Method: as §1, §2

RPMI-8226 = assay: NCI-60 single-dose screen; conditions: Homo sapiens, single dose 10 µM, '-' = no inhibition, read-out: % Growth Inhibition
Method: as §1, §2

EKVX = assay: NCI-60 single-dose screen; conditions: Homo sapiens, single dose 10 µM, '-' = no inhibition, read-out: % Growth Inhibition
Method: as §1, §2

UO-31 = assay: NCI-60 single-dose screen; conditions: Homo sapiens, single dose 10 µM, '-' = no inhibition, read-out: % Growth Inhibition
Method: as §1, §2

UACC-257 = assay: NCI-60 single-dose screen; conditions: Homo sapiens, single dose 10 µM, '-' = no inhibition, read-out: % Growth Inhibition
Method: as §1, §2

HOP-92 = assay: NCI-60 single-dose screen; conditions: Homo sapiens, single dose 10 µM, '-' = no inhibition, read-out: % Growth Inhibition
Method: as §1, §2

MDA-MB-435 = assay: NCI-60 single-dose screen; conditions: Homo sapiens, single dose 10 µM, '-' = no inhibition, read-out: % Growth Inhibition
Method: as §1, §2

BT-549 = assay: NCI-60 single-dose screen; conditions: Homo sapiens, single dose 10 µM, '-' = no inhibition, read-out: % Growth Inhibition
Method: as §1, §2

[1] = Cell viability assay (MTT) on normal cells; conditions: human, MCF-10A normal mammary gland epithelial cells, 4 days incubation
Method: This experiment examines the impact of the newly developed compounds 9–29 on normal cell lines to assess their safety level. The vitality of the investigated compounds was assessed using the MCF-10 A cell line, a normal human mammary gland epithelial cell line. Following 4 days of incubation on MCF-10 A cells with each examined compound at a concentration of 50 μM, the vitality of the cells was assessed using the MTT test ([Mahmoud et al., 2022]; [Mekheimer et al., 2022]).
This experiment examines the impact of the newly developed compounds 9–29 on normal cell lines to assess their safety level. The viability of 9–29 was assessed using the MCF-10 A cell line, a normal human mammary gland epithelial cell line. Following 4 days of incubation on MCF-10 A cells with each examined compound at a concentration of 50 μM, the vitality of the cells was assessed using the MTT test ([Mahmoud et al., 2022]; [Mekheimer et al., 2022]). Refer to Supplementary Material A1 for more details. […]
4.2. Biological evaluation
4.2.1. Cytotoxic activity using MTT Assay and evaluation of IC50
MTT assay was carried out to study the effect of compounds on mammary epithelial cells (MCF-10A). The medium in which cells were propagated contained Dulbecco's modified Eagle's medium (DMEM)/ Ham's F-12 medium (1:1) supplemented with epidermal growth factor (20 ng/mL), hydrocortisone (500 ng/mL), insulin (10 μg/mL), 2 mM glutamine and 10% foetal calf serum.
After every 2-3 days, the cells were passaged using trypsin ethylenediamine tetra acetic acid (EDTA). The cells were seeded at a density of 10^4 cells mL-1 in flat-bottomed culture plates containing 96 wells each. After 24 h, medium was removed from the plates and the compounds in (in 0.1% DMSO) were added (in 200 μL medium to yield a final concentration of 0.1% v/v) to the wells of plates. A single compound was designated with four wells followed by incubation of plates for 96h at 37°C. After incubation, medium was removed completely from the plates followed by addition of MTT (0.4 mg/mL in medium) to each well and subsequent incubation of plates for 3h. MTT (along with the medium) was removed and DMSO (150μL) was added to each well of the culture plates, followed by vertexing and subsequent measurement of absorbance (at 540 nm) using microplate reader. The data are shown as percentage inhibition of proliferation in comparison with controls containing 0.1% DMSO. […]

[2] = system: four cancer cell lines (A-549, MCF-7, Panc-1, HT-29); assay: Antiproliferative assay, average over four cancer cell lines; conditions: Homo sapiens; average of the four cancer cell lines; read-out: Average IC50 (GI50)
Source text: Table 2 presents the four cancer cell lines’ median inhibitory concentration (IC50) and GI50 (average IC50) values.
The IC50 values were derived from dose-response tests. The reported data are derived from at least two independent studies, each comprising three replicates per concentration. See Supplementary Material A1 for more details.

Row | SMILES | inhibition at 10 µM (IGROV1) [%] | inhibition at 10 µM (COLO 205) [%] | inhibition at 10 µM (HS 578T) [%] | inhibition at 10 µM (SF-539) [%] | inhibition at 10 µM (OVCAR-3) [%] | inhibition at 10 µM (HCT-116) [%] | inhibition at 10 µM (MALME-3M) [%] | inhibition at 10 µM (MCF7) [%] | inhibition at 10 µM (MDA-MB231/ATCC) [%] | inhibition at 10 µM (A549/ATCC) [%] | inhibition at 10 µM (PC-3) [%] | inhibition at 10 µM (SNB-75) [%] | inhibition at 10 µM (RXF 393) [%] | inhibition at 10 µM (NCI/ADR-RES) [%] | inhibition at 10 µM (OVCAR-8) [%] | inhibition at 10 µM (SN12C) [%] | inhibition at 10 µM (SNB-19) [%] | inhibition at 10 µM (SR) [%] | inhibition at 10 µM (RPMI-8226) [%] | inhibition at 10 µM (EKVX) [%] | other results
1 | CCSc1nc(-c2ccc(OC)cc2)cc(-c2cccc(OC)c2)n1 [Compound 17, 2-(Ethylthio)-6-(3-methoxyphenyl)-4-(4-methoxyphenyl)pyrimidine] | < 0 | < 0 | < 0 | < 0 | < 0 | 5.86 | < 0 | 11 | 6.41 | 0.61 | < 0 | < 0 | < 0 | < 0 | < 0 | < 0 | < 0 | 18.4 | 3.83 | 1.03 | inhibition at 10 µM (UO-31): 13.7%; inhibition at 10 µM (UACC-257): < 0%; inhibition at 10 µM (HOP-92): < 0%; inhibition at 10 µM (MDA-MB-435): 2.52%; inhibition at 10 µM (BT-549): < 0%; viability at 4 days, 50 µM [1]: 90%; IC50 [2]: 0.029 µM
2 | C=CCSc1nc(-c2ccc(Cl)cc2)cc(-c2ccc(OC)c(OC)c2)n1 [Compound 27, 2-(Allylthio)-4-(4-chlorophenyl)-6-(3,4-dimethoxyphenyl)pyrimidine] | < 0 | < 0 | < 0 | < 0 | < 0 | 21.8 | < 0 | 17.9 | 7.53 | 12.3 | 15.7 | < 0 | 3.07 | 21.8 | 7.89 | 14.3 | 8.39 | 30.3 | 14.3 | 12.2 | inhibition at 10 µM (UO-31): 22.9%; inhibition at 10 µM (UACC-257): < 0%; inhibition at 10 µM (HOP-92): 10.6%; inhibition at 10 µM (MDA-MB-435): 6.35%; inhibition at 10 µM (BT-549): 3.91%; viability at 4 days, 50 µM [1]: 89%; IC50 [2]: 0.059 µM
